From PMC5654414, “In vitro and in vivo comparative and competitive activity-based protein profiling of GH29 α-L-fucosidases” (Chemical Science, 2015) come the findings set out here.

Series [1] relates to retaining α-L-fucosidases. Briefly: In vivo labeling of α-L-fucosidases in mice. More on the design: species or system C57Bl/6J mice. As for the experimental part:
(§1) The ability of 1 to label α-L-fucosidase in living mice was investigated next. Four wild-type C57Bl/6J male mice were injected with 100 μL vehicle (PBS) or PBS containing 10, 100 or 1000 pmol 1. After two hours, the mice were anesthetized, perfused with PBS and then brain, spleen, liver and kidney tissues were isolated. Tissue homogenates were prepared and each lysate was labeled prior to gel electrophoresis with red-fluorescent cyclophellitol β-aziridine JJB75, which labels β-exoglucosidases as loading control (ESI Fig. S6 ^†). Furthermore, tissue homogenates of vehicle-treated animals were labeled with excess 1 to visualize the maximal α-L-fucosidase labeling achievable in each tissue.
(§2) The appropriate ethics committee for animal experiments approved all experimental procedures. Wild-type C57Bl/6J male mice were obtained from Harlan and fed a commercially available lab diet (RMH-B; Hope Farms). Four C57BL/6J mice were injected intraperitoneally with 100 μL sterile PBS (vehicle) or PBS containing 10, 100, or 1000 pmol of ABP 1 (about 0.2 μg kg^–1, 2 μg kg^–1, and 20 μg kg^–1, respectively). At 2 h post-administration, urine was collected and the mice were anesthetized with FFM mix (25/25/50 fentanylcitrate/midazalam/H2O), blood was collected and perfused with PBS at 3.0 mL min^–1. Then urine and organs were collected and directly frozen in liquid nitrogen. Homogenates were made in 25 mM potassium phosphate buffer, pH 6.5, supplemented with 0.1% (v/v) Triton X-100 and protease inhibitor cocktail (Roche). After determination of protein concentration (BCA kit, Pierce), 50 μg total protein was incubated with 100 nM red fluorescent JJB75 and analyzed by SDS-PAGE. As controls, matching tissue homogenates of vehicle-treated animals were concomitantly labeled with 1 μM ABP 1 and 100 nM JJB75 prior to SDS-PAGE.

Series [2] concerns the target T1, retaining α-L-fucosidases (Mus musculus, UniProt Q99LJ1).
T1 construct: from tissue; host or cells: C57Bl/6J mouse spleen, liver, kidney, brain (in vivo)
T1 sequence (Q99LJ1 18-452): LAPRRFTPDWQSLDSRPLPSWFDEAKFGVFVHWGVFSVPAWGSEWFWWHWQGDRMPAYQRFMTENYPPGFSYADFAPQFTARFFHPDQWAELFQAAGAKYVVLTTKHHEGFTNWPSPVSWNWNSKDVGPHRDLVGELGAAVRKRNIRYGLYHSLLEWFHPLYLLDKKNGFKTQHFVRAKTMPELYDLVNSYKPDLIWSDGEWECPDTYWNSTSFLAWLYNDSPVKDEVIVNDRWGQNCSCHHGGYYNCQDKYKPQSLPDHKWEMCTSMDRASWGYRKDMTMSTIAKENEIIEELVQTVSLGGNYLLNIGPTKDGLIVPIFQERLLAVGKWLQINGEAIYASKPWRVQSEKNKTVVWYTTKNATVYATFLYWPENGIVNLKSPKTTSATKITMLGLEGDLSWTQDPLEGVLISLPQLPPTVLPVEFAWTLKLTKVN
In words: In vivo labeling of α-L-fucosidases in mice. Details: species or system C57Bl/6J mice. Particulars: any of the administered doses (10, 100, 1000 pmol), 2 h. As for the experimental part:
as §1, §2

Structures are written as SMILES.

`CC1=CC(C)=[N+]2C1=C(CCCCc1cn(CCCCCCCC(=O)N3[C@@H]4[C@@H](C)[C@@H](O)[C@@H](O)[C@H](O)[C@@H]43)nn1)c1c(C)cc(C)n1[B-]2(F)F` [compound 1]: in series [1] (concluded from absent brain labeling), the brain penetration entry is recorded as “does not penetrate the brain”. Further, the “in vivo labeling of α-fucosidase in spleen, liver and kidney” value in series [1] (injection of 1000 pmol, 2 h) is recorded as “substantial labeling”. Further, the “in vivo labeling of retaining α-L-fucosidases in spleen, liver and kidney” value in series [1] (intraperitoneal, 10, 100 or 1000 pmol, 2 h) was “dose-dependent labeling”. The “in vivo brain FUCA1 labeling” value in series [2] is given as “no in vivo brain FUCA1 labeling was observed”.
